Measurements reported in patent US20020004209A1, “Use of SLIM3 for binding to molecules” (Schering Aktiengesellschaft Patents, priority 1999, published 2002).

Target: T1, androgen receptor (Homo sapiens, UniProt P10275)
T1 construct: expressed in transfected cells; host or cells: 293 cells
T1 sequence (P10275 1-920): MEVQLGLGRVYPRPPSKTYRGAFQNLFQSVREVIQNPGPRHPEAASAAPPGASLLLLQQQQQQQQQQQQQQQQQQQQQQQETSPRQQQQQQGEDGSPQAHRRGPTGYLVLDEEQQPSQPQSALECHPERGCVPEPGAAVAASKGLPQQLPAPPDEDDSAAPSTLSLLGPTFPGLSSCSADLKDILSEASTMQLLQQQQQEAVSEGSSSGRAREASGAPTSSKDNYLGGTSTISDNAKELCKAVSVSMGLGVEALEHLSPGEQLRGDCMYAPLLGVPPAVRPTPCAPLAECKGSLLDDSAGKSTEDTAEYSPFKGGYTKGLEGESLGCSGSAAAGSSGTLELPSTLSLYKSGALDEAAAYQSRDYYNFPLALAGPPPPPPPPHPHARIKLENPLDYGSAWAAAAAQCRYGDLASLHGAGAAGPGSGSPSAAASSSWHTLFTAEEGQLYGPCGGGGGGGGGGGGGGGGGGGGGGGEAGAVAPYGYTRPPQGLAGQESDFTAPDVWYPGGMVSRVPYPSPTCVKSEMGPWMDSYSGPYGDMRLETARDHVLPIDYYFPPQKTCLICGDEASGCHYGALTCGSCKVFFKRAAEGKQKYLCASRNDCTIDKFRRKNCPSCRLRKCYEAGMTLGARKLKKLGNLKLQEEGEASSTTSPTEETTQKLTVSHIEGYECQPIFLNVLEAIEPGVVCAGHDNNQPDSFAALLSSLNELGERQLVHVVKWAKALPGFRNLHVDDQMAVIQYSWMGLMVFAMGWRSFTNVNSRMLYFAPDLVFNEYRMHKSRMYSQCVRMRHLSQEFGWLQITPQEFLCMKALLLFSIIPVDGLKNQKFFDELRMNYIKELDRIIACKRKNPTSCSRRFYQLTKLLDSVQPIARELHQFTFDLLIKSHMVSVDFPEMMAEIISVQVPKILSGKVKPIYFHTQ
T1 sequence (Q14192 1-279 partner): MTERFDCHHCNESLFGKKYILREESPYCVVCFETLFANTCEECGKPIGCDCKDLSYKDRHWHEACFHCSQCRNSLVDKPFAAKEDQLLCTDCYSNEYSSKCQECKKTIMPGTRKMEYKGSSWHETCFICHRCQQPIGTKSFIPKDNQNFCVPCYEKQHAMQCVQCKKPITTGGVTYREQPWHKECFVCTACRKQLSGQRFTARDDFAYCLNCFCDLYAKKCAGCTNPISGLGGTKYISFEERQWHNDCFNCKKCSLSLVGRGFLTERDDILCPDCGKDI
Test: androgen receptor co-activation, MMTV-LUC or proteasin-Luc reporter, transient transfection
Assay type: cell-based
Conditions: 293 cells; androgen receptor-expression-plasmid co-transfected

For `C[C@]1(O)CC[C@H]2[C@@H]3CCC4=CC(=O)CCC4=C3C=C[C@@]21C` [R1881, reference compound], the “transactivation of the reporter gene” value was “transactivated”.
